Test results published in ChEMBL document CHEMBL1201862, “PubChem BioAssay data set” (2004).
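All cell lines were grown in 96-well plates and treated with compound for 48 hours. GI50 marks 50% less growth.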 Calls of active or inactive are those of the source. No stated cut-off is given here; in the data, active = GI50 up to about 1.1 µM and inactive = higher.

Key:
Assay in all cases: NCI anticancer screen, dose series, 48 h
[1] = tested on: TK-10
[2] = tested on: NCI/ADR-RES
[3] = tested on: UACC-257
[4] = tested on: HL-60
[5] = tested on: CCRF-CEM
[6] = tested on: NCI-H226
[7] = tested on: DU-145
[8] = tested on: MDA-N
[9] = tested on: SF-539
[10] = tested on: CAKI-1
[11] = tested on: KM12
[12] = tested on: SN12C
[13] = tested on: MOLT-4
[14] = tested on: 786-0
[15] = tested on: SNB-75
[16] = tested on: OVCAR-5
[17] = tested on: EKVX
[18] = tested on: HCT-116
[19] = tested on: Malme-3M
[20] = tested on: SW-620
[21] = tested on: A498
[22] = tested on: SK-MEL-28
[23] = tested on: UACC-62
[24] = tested on: BT-549
[25] = tested on: MCF7
[26] = tested on: MDA-MB-231
[27] = tested on: LOX IMVI
[28] = tested on: NCI-H23
[29] = tested on: OVCAR-3
[30] = tested on: Hs-578T
[31] = tested on: ACHN
[32] = tested on: SK-OV-3
[33] = tested on: PC-3
[34] = tested on: SNB-19
[35] = tested on: U-251
[36] = tested on: COLO 205
[37] = tested on: SK-MEL-5
[38] = tested on: IGROV-1
[39] = tested on: NCI-H460
[40] = tested on: RXF 393
[41] = tested on: MDA-MB-435
[42] = tested on: HCT-15
[43] = tested on: SF-268
[44] = tested on: UO-31
[45] = tested on: M14
[46] = tested on: SF-295
[47] = tested on: SK-MEL-2
[48] = tested on: T47D
[49] = tested on: OVCAR-8
[50] = tested on: RPMI-8226
[51] = tested on: K562
[52] = tested on: HT-29

SMILES: COc1ccc(/C=C2\CCC(C)C3=C(c4ccc(OC)c(OC)c4)C(C#N)=C(N)OC32)cc1OC (configuration not stated)
- GI50 [1]: 4.04 µM (inactive)
- GI50 [2]: 2.65 µM (inactive)
- GI50 [3]: 4.18 µM (inactive)
- GI50 [4]: 2.63 µM (inactive)
- GI50 [5]: 2.28 µM (inactive)
- GI50 [6]: 2.39 µM (inactive)
- GI50 [7]: 5.5 µM (inactive)
- GI50 [8]: 3.45 µM (inactive)
- GI50 [9]: 1.55 µM (inactive)
- GI50 [10]: 4.36 µM (inactive)
- GI50 [11]: 3.3 µM (inactive)
- GI50 [12]: 3.45 µM (inactive)
- GI50 [13]: 2.55 µM (inactive)
- GI50 [14]: 3.35 µM (inactive)
- GI50 [15]: 2.33 µM (inactive)
- GI50 [16]: 2.75 µM (inactive)
- GI50 [17]: 1.86 µM (inactive)
- GI50 [18]: 2.82 µM (inactive)
- GI50 [19]: 2.48 µM (inactive)
- GI50 [20]: 4.29 µM (inactive)
- GI50 [21]: 3.76 µM (inactive)
- GI50 [22]: 3.86 µM (inactive)
- GI50 [23]: 2.86 µM (inactive)
- GI50 [24]: 3.51 µM (inactive)
- GI50 [25]: 3.26 µM (inactive)
- GI50 [26]: 2.95 µM (inactive)
- GI50 [27]: 3.16 µM (inactive)
- GI50 [28]: 2.7 µM (inactive)
- GI50 [29]: 3.58 µM (inactive)
- GI50 [30]: 4.42 µM (inactive)
- GI50 [31]: 3.66 µM (inactive)
- GI50 [32]: 3.42 µM (inactive)
- GI50 [33]: 3.13 µM (inactive)
- GI50 [34]: 7.94 µM (inactive)
- GI50 [35]: 3.58 µM (inactive)
- GI50 [36]: 2.76 µM (inactive)
- GI50 [37]: 2.01 µM (inactive)
- GI50 [38]: 2.39 µM (inactive)
- GI50 [39]: 3.03 µM (inactive)
- GI50 [40]: 1.65 µM (inactive)
- GI50 [41]: 2.7 µM (inactive)
- GI50 [42]: 3.33 µM
- GI50 [43]: 9.77 µM (inactive)
- GI50 [44]: 2.4 µM (inactive)
- GI50 [45]: 3.17 µM (inactive)
- GI50 [46]: 3.43 µM (inactive)
- GI50 [47]: 1.97 µM (inactive)
- GI50 [48]: 2.17 µM (inactive)
- GI50 [49]: 4.01 µM (inactive)
- GI50 [50]: 2.04 µM (inactive)
- GI50 [51]: 3.78 µM (inactive)
- GI50 [52]: 2.75 µM (inactive)
